# From patent US12643887B2, “Heterocyclic derivatives with cardiomyocyte proliferation activity for treatment of heart diseases” (Tongji University, priority 2019, dated 2026)
# Legend:
# [1] = target: T1, human CLK1 (Homo sapiens, UniProt P49759); assay: CLK1 enzyme assay (ADP-Glo); assay type: biochemical; settings: ADP-Glo, ATP 10 μM; read-out: CLK1 IC50
# T1 construct: Recombinant human CLK1 (129-end); GST (N); purchased SignalChem C57-11G; host or cells: Sf9 insect cells
# In short: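 GST-tagged CLK1 (129-end, Sf9-expressed) at 16 nM was preincubated with compound 30 min at 25 °C in 40 mM Tris pH 7.5, 20 mM MgCl2, 0.1 mg/ml BSA, 50 μM DTT. Reaction with 2 μM substrate and 10 μM ATP ran 60 min at 25 °C. ADP-Glo luminescence gave IC50 by four-parameter fit.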
# [2] = system: Neonatal Rat Ventricular Myocytes (NRVMs); assay: Myocyte proliferation assay (EdU assay) in neonatal rat ventricular myocytes; assay type: cell-based; settings: growth relative to blank myocyte growth without compound added; for Avg 1 uM (average myocyte proliferation): compound 1 uM; for Avg 3 uM (average myocyte proliferation): compound 3 uM; for Avg 10 uM (average myocyte proliferation): compound 10 uM
# In short: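 After 36 h compound exposure (1, 3 or 10 uM in 6% FBS/ITS DMEM, following 24 h low-serum culture), NRVMs were pulsed with EdU for 12 h. Proliferation scored by automated confocal imaging of EdU click chemistry, ab8295 immunostaining and DAPI nuclei in fixed cultures.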
# T1 sequence (P49759 129-484 limits assumed): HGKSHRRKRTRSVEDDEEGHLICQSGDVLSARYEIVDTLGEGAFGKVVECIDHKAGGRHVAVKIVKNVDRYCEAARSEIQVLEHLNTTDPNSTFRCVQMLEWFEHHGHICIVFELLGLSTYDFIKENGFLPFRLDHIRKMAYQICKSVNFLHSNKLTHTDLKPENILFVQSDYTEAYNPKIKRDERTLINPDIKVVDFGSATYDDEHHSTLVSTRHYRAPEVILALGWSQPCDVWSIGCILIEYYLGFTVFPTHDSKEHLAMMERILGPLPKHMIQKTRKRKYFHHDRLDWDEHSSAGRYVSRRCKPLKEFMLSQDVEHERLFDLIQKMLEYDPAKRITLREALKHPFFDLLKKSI
Compound,IC50 [1],Avg 1 uM (average myocyte proliferation) [2],Avg 3 uM (average myocyte proliferation) [2],Avg 10 uM (average myocyte proliferation) [2]
"NC(=O)CCN(C1=N/C(=C\c2ccc3c(c2)OCO3)C(=O)N1)c1ccccc1 [Example 36, (Z)-3-((4-(benzo[d][1,3]dioxol-5-ylmethylene)-5-oxo-4,5-dihydro-1H-imidazol-2-yl)(phenyl)amino)propanamide]",100 to 1000 nM,* (<10% growth relative to blank myocyte growth without compound added.),** (10%-50%),–
"O=C1NC(Nc2ccccc2)=N/C1=C\c1ccc2ncsc2c1 [Example 6, (Z)-5-(benzo[d]thiazol-6-ylmethylene)-2-(phenylamino)-3,5-dihydro-4H-imidazol-4-one]",< 100 nM,*** (>50%),** (10%-50%),* (<10% growth relative to blank myocyte growth without compound added.)
"CN(CC1CC1)C1=N/C(=C\c2ccc3c(c2)OCO3)C(=O)N1 [Example 11, (Z)-5-(benzo[d][1,3]dioxol-5-ylmethylene)-2-((cyclopropylmethyl)(methyl)amino)-3,5-dihydro-4H-imidazol-4-one]",100 to 1000 nM,** (10%-50%),** (10%-50%),*** (>50%)
"O=C1NC(Nc2ccc3ncsc3c2)=N/C1=C\c1ccc2cccnc2c1 [Example 60, (Z)-2-(benzo[d]thiazol-6-ylamino)-5-(quinolin-7-ylmethylene)-3,5-dihydro-4H-imidazol-4-one]",> 10000 nM,* (<10% growth relative to blank myocyte growth without compound added.),* (<10% growth relative to blank myocyte growth without compound added.),–
"COc1ccccc1N(C)C1=N/C(=C\c2ccc3c(c2)OCO3)C(=O)N1 [Example 21, (Z)-5-(benzo[d][1,3]dioxol-5-ylmethylene)-2-((2-methoxyphenyl)(methyl)amino)-3,5-dihydro-4H-imidazol-4-one]",1000 to 10000 nM,*** (>50%),*** (>50%),** (10%-50%)
"O=C1/C(=C/c2ccc3ncsc3c2)N=C(N(Cc2ccccc2)c2ccccc2)N1Cc1ccccc1 [Example 42, (Z)-5-(benzo[d]thiazol-6-ylmethylene)-3-benzyl-2-(benzyl(phenyl)amino)-3,5-dihydro-4H-imidazol-4-one]",> 10000 nM,** (10%-50%),** (10%-50%),*** (>50%)
"CN(C1=N/C(=C\c2ccc3ncsc3c2)C(=O)N1)c1ccc([N+](=O)[O-])cc1 [Example 43, (Z)-5-(benzo[d]thiazol-6-ylmethylene)-2-(methyl(4-nitrophenyl)amino)-3,5-dihydro-4H-imidazol-4-one]",1000 to 10000 nM,** (10%-50%),** (10%-50%),** (10%-50%)
"CN(C1=N/C(=C\c2ccc3ncsc3c2)C(=O)N1)c1ccccc1 [Example 7, (Z)-5-(benzo[d]thiazol-6-ylmethylene)-2-(methyl(phenyl)amino)-3,5-dihydro-4H-imidazol-4-one]",100 to 1000 nM,* (<10% growth relative to blank myocyte growth without compound added.),** (10%-50%),* (<10% growth relative to blank myocyte growth without compound added.)
"O=C1NC(Nc2ccc3ncsc3c2)=N/C1=C\c1ccc2ncsc2c1 [Example 48, (Z)-2-(benzo[d]thiazol-6-ylamino)-5-(benzo[d]thiazol-6-ylmethylene)-3,5-dihydro-4H-imidazol-4-one]",< 100 nM,*** (>50%),*** (>50%),*** (>50%)
"O=C1NC(NC23CC4CC(CC(C4)C2)C3)=N/C1=C\c1ccc2scnc2c1 [Example 50, (Z)-2-(adamantan-1-ylamino)-5-(benzo[d]thiazol-5-ylmethylene)-3,5-dihydro-4H-imidazol-4-one]",> 10000 nM,* (<10% growth relative to blank myocyte growth without compound added.),* (<10% growth relative to blank myocyte growth without compound added.),–
"CN(CCN1CCOCC1)C1=N/C(=C\c2ccc3ncsc3c2)C(=O)N1 [Example 32, (Z)-5-(benzo[d]thiazol-6-ylmethylene)-2-(methyl(2-morpholinoethyl)amino)-3,5-dihydro-4H-imidazol-4-one]",100 to 1000 nM,* (<10% growth relative to blank myocyte growth without compound added.),* (<10% growth relative to blank myocyte growth without compound added.),–
"Cn1ncc2cc(/C=C3\N=C(Nc4ccc5ncsc5c4)NC3=O)ccc21 [Example 78, (Z)-2-(benzo[d]thiazol-6-ylamino)-5-((1-methyl-1H-indazol-5-yl)methylene)-3,5-dihydro-4H-imidazol-4-one]",> 10000 nM,* (<10% growth relative to blank myocyte growth without compound added.),* (<10% growth relative to blank myocyte growth without compound added.),–
"O=C1NC(Nc2ccc3ncsc3c2)=NC1Cc1ccc2ncsc2c1 (stereo not drawn) [Example 102, 2-(benzo[d]thiazol-6-ylamino)-5-(benzo[d]thiazol-6-ylmethyl)-3,5-dihydro-4H-imidazol-4-one]",100 to 1000 nM,* (<10% growth relative to blank myocyte growth without compound added.),** (10%-50%),–
"CN(C1=N/C(=C\c2ccc3c(c2)OCO3)C(=O)N1)c1ccc2ncsc2c1 [Example 70, (Z)-5-(benzo[d][1,3]dioxol-5-ylmethylene)-2-(benzo[d]thiazol-6-yl(methyl)amino)-3,5-dihydro-4H-imidazol-4-one]",< 100 nM,** (10%-50%),** (10%-50%),–
"O=C1NC(Nc2ccc3nccnc3c2)=N/C1=C\c1ccc2ncsc2c1 [Example 82, (Z)-5-(benzo[d]thiazol-6-ylmethylene)-2-(quinoxalin-6-ylamino)-3,5-dihydro-4H-imidazol-4-one]",< 100 nM,** (10%-50%),** (10%-50%),–
"Cn1ncc2ccc(/C=C3\N=C(Nc4ccccc4)NC3=O)cc21 [Example 79, 5-((1-methyl-1H-indazol-6-yl)methylene)-2-(phenylamino)-3,5-dihydro-4H-imidazol-4-one]",> 10000 nM,* (<10% growth relative to blank myocyte growth without compound added.),* (<10% growth relative to blank myocyte growth without compound added.),–
"Cn1ncc2cc(/C=C3\N=C(Nc4ccccc4)NC3=O)ccc21 [Example 77, (Z)-5-((1-methyl-1H-indazol-5-yl)methylene)-2-(phenylamino)-3,5-dihydro-4H-imidazol-4-one]",100 to 1000 nM,* (<10% growth relative to blank myocyte growth without compound added.),* (<10% growth relative to blank myocyte growth without compound added.),–
"O=C1NC(Nc2ccccc2)=N/C1=C\c1ccc2[nH]ccc2c1 [Example 51, (Z)-5-((1H-indol-5-yl)methylene)-2-(phenylamino)-3,5-dihydro-4H-imidazol-4-one]",> 10000 nM,** (10%-50%),** (10%-50%),** (10%-50%)
"CN(C1=N/C(=C\c2ccc3c(c2)OCCO3)C(=O)N1)c1ccccc1 [Example 8, (Z)-5-((2,3-dihydrobenzo[b][1,4]dioxin-6-yl)methylene)-2-(methyl(phenyl)amino)-3,5-dihydro-4H-imidazol-4-one]",1000 to 10000 nM,** (10%-50%),* (<10% growth relative to blank myocyte growth without compound added.),** (10%-50%)
